Measured values from PMC8279417 (Journal of Medicinal Chemistry, 2021).
Read-outs that look alike come from different tables or passages of the source.

Assays:
MCF-7TamR cells = assay: Crystal violet assay, MCF-7TamR cells; format: cell-based
COS-7 cells = assay: Cellular uptake into COS-7 cells (fluorometry, related to protein content); format: in vitro ADME, African green monkey; conditions: 10 μM, after 4 h, nmol compound/mg protein
Protocol: (§1) The compounds were incubated at a concentration of 10 μM with either MCF-7 or COS-7 cells, and the intracellular amount, determined by fluorometry, was related to the protein content.[42]
(§2) The determination of the cellular uptake in MCF-7 and COS-7 cells was performed as already described.[24] Measurement was conducted with the Enspire multimode plate reader.

ERα [1] = target: T1, ERα (Homo sapiens, UniProt P03372); conditions: for IC50: read-out: TR-FRET ERα IC50, displacement of fluorescent-labeled E2 from the LBD of ERα; for RBA ERα: relative binding affinity compared to E2 (100%)
T1 sequence (P03372 311-547 limits assumed): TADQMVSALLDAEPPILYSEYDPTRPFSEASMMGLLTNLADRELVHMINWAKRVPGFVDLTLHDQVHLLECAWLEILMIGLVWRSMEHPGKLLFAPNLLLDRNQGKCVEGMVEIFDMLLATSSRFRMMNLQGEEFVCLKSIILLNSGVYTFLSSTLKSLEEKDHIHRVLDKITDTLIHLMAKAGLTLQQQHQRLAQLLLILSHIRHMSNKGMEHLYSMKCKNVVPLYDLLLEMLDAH
Protocol: (§3) LanthaScreen TR-FRET ER alpha/beta competitive binding assays (Invitrogen, Carlsbad) were used to investigate the binding affinity to the isolated receptors according to the manufacturer′s protocols. Measurement was performed with an Enspire multimode plate reader (PerkinElmer Life Sciences, Waltham). Calculations were performed with Excel (Microsoft, Redmond) and GraphPad Prism (GraphPad Software, San Diego).

ERβ [2] = target: T2, ERβ (Homo sapiens, UniProt Q92731); assay: Luciferase reporter gene assay (transactivation), U2OS cells transfected with pSG5-ERβ; format: cell-based; conditions: inhibition of E2-induced (0.3 nM) transactivation
Target sequence in this assay (Q92731 whole entry): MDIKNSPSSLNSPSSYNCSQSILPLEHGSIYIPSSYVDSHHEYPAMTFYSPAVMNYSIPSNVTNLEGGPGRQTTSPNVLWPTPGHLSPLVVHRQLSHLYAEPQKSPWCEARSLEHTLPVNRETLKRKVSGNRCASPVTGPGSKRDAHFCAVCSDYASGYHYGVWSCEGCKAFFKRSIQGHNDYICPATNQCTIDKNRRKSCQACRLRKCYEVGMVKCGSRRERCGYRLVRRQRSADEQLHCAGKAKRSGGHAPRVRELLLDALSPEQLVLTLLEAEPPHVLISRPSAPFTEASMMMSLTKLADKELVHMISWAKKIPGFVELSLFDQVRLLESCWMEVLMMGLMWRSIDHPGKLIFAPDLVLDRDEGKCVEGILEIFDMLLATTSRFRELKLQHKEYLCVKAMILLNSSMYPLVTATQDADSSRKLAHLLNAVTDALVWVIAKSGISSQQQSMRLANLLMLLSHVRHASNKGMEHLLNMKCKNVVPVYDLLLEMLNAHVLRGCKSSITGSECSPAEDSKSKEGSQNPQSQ

ERα [3] = target: T3, ERα (Homo sapiens, UniProt P03372); assay: In-Cell Western immunoassay, ERα levels in MCF-7 cells; format: cell-based; conditions: for Emax at 1 µM: MCF7, read-out: % efficacy [1 μM], downregulation of ERα compared to fulvestrant (100%), MCF-7, 1 μM
T3 sequence (P03372 1-595): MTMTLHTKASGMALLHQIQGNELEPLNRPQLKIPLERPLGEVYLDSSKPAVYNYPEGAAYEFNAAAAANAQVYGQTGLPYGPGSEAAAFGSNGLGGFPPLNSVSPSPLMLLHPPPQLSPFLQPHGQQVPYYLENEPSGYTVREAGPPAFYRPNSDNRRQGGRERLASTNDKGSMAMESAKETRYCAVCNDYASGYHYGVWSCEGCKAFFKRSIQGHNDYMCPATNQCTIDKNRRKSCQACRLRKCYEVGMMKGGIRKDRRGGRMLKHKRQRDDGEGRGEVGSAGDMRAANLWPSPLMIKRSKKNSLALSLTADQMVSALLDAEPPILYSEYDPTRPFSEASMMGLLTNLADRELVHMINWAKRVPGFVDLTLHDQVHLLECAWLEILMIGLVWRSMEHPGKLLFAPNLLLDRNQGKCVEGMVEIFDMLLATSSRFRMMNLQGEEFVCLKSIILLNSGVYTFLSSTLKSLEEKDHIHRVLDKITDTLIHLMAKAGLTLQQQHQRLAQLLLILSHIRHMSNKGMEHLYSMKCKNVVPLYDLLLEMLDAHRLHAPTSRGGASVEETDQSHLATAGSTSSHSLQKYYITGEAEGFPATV
Protocol: Degradation was evaluated with the CellTagTM 700 In-Cell Western kit (LI-COR, Lincoln) according to the manufacturer’s protocol. MCF-7 cells were treated, and calculation was performed as previously described.[24]

ERβ [4] = target: T2, ERβ; conditions: for IC50: read-out: TR-FRET ERβ IC50, displacement of fluorescent-labeled E2 from the LBD of ERβ; for RBA ERβ: relative binding affinity compared to E2 (100%)
Target sequence in this assay (Q92731 264-498 limits assumed): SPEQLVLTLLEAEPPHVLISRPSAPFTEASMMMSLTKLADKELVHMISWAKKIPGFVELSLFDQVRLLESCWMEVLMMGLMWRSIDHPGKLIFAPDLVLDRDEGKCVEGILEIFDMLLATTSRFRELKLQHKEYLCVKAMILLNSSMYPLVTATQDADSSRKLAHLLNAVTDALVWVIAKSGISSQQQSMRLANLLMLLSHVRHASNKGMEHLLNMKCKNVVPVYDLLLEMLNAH
Protocol: as §3

ERα [5] = target: T3, ERα; assay: Luciferase reporter gene assay (transactivation), U2OS cells transfected with pSG5-ERα; format: cell-based; conditions: inhibition of E2-induced (0.03 nM) transactivation
MCF-7 cells = assay: Cellular uptake into MCF-7 cells (fluorometry, related to protein content); format: in vitro ADME; conditions: 10 μM, after 4 h (saturation), nmol compound/mg protein
Protocol: as §1, §2

MDA-MB-231 cells = assay: Crystal violet assay, MDA-MB-231 cells; format: cell-based
[6] = 0.5 mM, methanol/2× PBS (75:25), 37 °C, 72 h
Description: For the interpretation of the biological results, it is necessary to obtain information about the isomerization by simulating physiological conditions.

Structure (SMILES) | T/Ccorr MCF-7TamR (MCF-7TamR cells) | cellular uptake, COS-7 cells (COS-7 cells) [nmol/mg] | IC50 (ERα [1]) [nM] | RBA ERα (ERα [1]) [%] | IC50 (ERβ [2]) [nM] | Emax at 1 µM (ERα [3]) [%] | IC50 (ERβ [4]) [nM] | RBA ERβ (ERβ [4]) [%] | IC50 (ERα [5]) [nM] | cellular uptake, MCF-7 cells (MCF-7 cells) [nmol/mg] | T/Ccorr MDA-MB-231 (MDA-MB-231 cells) [%] | amount of the E isomer [6] [%] | % ERα remaining [1 μM] (ERα [3]; MCF-7 cells, 24 h, 1 μM, compared to the solvent control (DMSO)) [%] | % efficacy [1 μM] (ERα [3]; downregulation of ERα compared to fulvestrant (100%), MCF-7, 1 μM) [%]
CCC(=C(c1ccc(O)cc1)c1ccc(/C=C/C(=O)NCCCNC(=O)CCCn2c(=S)[nH]c3ccccc3c2=O)cc1)c1ccccc1 (mixture of isomers) [Compound 15] | about 40% | 1.6 | 4.01 ± 1.9 | 8.2 | 4.1 ± 0.6 | 60 | 12.6 ± 4.8 | 5.9 | 30.2 ± 14.3 | 2.8 | 20 |  |  | 
CCC(=C(c1ccc(O)cc1)c1ccc(/C=C/C(=O)NCCCNC(=O)c2ccc(N3CCN(C(=O)CCCn4c(=S)[nH]c5ccccc5c4=O)CC3)cc2)cc1)c1ccccc1 (mixture of isomers) [Compound 17] | about 40% |  | 4.63 ± 1.74 | 7.1 | 48 ± 12 | 94.5 | 18.5 ± 4.8 | 4 | 104 ± 14 |  |  | 25 | 5.5 ± 5.0 | 95
